Target: SARS-CoV-2 Papain like protease (PLpro) (Severe acute respiratory syndrome coronavirus 2 (2019-nCoV) (SARS-CoV-2), UniProt P0DTD1)
Assay: Papain Like Protease (PLpro) biochemical assay with profluorogenic substrate Z-RLRGG-AMC
Settings: SARS-CoV-2 PLpro 6.25 nM, 25 μM Z-RLRGG-AMC substrate, 60 minute reaction; read-out: IC50

SMILES | IC50
Cc1ccccc1C(=O)N[C@H](C)c1cc(OCC2CCOC2)nc2ccccc12 (stereo partly drawn) [Example 43, 2-methyl-N-((1R)-1-(2-((tetrahydrofuran-3-yl)methoxy)quinolin-4-yl)ethyl)benzamide] | 3080 nM
CNC(=O)c1cc(-c2cc(C3(NC(=O)c4ccc(COCc5cscn5)cc4C)CC3)c3ccccc3n2)[nH]n1 [Example 347, N-methyl-5-(4-(1-(2-methyl-4-((thiazol-4-ylmethoxy)methyl)benzamido)cyclopropyl)quinolin-2-yl)-1H-pyrazole-3-carboxamide] | < 1 nM
Cc1cc(CC(=O)Nc2cscn2)ccc1C(=O)NC1(c2cc(-c3cnn(C)c3)nc3ccccc23)CC1 [Example 313, 2-methyl-N-(1-(2-(1-methyl-1H-pyrazol-4-yl)quinolin-4-yl)cyclopropyl)-4-(2-oxo-2-(thiazol-4-ylamino)ethyl)benzamide] | 4 nM
Cc1ccc(NC(=O)[C@H]2CCCCN2)cc1C(=O)NC(C)c1cc(-c2cnn(C)c2)cc2ccccc12 (stereo partly drawn) [Example 4, (2R)—N-(4-methyl-3-((1-(3-(1-methyl-1H-pyrazol-4-yl)naphthalen-1-yl)ethyl)carbamoyl)phenyl)piperidine-2-carboxamide] | 23 nM
Cc1ccccc1C(=O)NC(C)c1cc(NCC2CCCOC2)nc2ccccc12 (stereo not drawn) [Example 140, 2-methyl-N-[1-(2-{[(oxan-3-yl)methyl]amino}quinolin-4-yl)ethyl]benzamide] | 1960 nM
Cc1cc(COCc2cscn2)ccc1C(=O)NC1(c2cc(-c3cc(C(=O)N(C)CCN(C)C)n[nH]3)nc3ccccc23)CC1 [Example 329, N-(2-(dimethylamino)ethyl)-N-methyl-5-(4-(1-(2-methyl-4-((thiazol-4-ylmethoxy)methyl)benzamido)cyclopropyl)quinolin-2-yl)-1H-pyrazole-3-carboxamide] | < 1 nM
Cc1cc(C(NCc2cscn2)C(F)(F)F)ccc1C(=O)N[C@H](C)c1cc(-c2cnn(C)c2)nc2ccccc12 (stereo partly drawn) [Example 310, 2-methyl-N-((R)-1-(2-(1-methyl-1H-pyrazol-4-yl)quinolin-4-yl)ethyl)-4-(2,2,2-trifluoro-1-((thiazol-4-ylmethyl)amino)ethyl)benzamide] | 3 nM
Cc1ccc(NC(=O)[C@H]2CCCCN2)cc1C(=O)N[C@H](C)c1cc(-c2cnn(C)c2)cc2ccccc12 (single isomer, unassigned) [Example 66] | 8 nM
Cc1ccccc1C(=O)NC(C)c1cc(NC2(C#N)CC2)nc2ccccc12 (stereo not drawn) [Example 145, N-(1-{2-[(1-cyanocyclopropyl)amino]quinolin-4-yl}ethyl)-2-methylbenzamide] | 2520 nM
Cc1cc(C(=O)NCc2cscn2)ccc1C(=O)NC1(c2cc(-c3cnn(C)c3)nc3ccccc23)CC1 [Example 254] | 5 nM
Cc1cc(C(=O)NC(C)c2cscn2)ccc1C(=O)N[C@H](C)c1cc(-c2cnn(C)c2)nc2ccccc12 (stereo partly drawn) [Example 202] | 12 nM
C[C@@H](NC(=O)c1ccccc1CCC(=O)NNC(=O)/C=C/C(=O)N(C)C)c1cc(-c2cnn(C)c2)nc2ccccc12 [Example 234, (R,E)-2-(3-(2-(4-(dimethylamino)-4-oxobut-2-enoyl)hydrazineyl)-3-oxopropyl)-N-(1-(2-(1-methyl-1H-pyrazol-4-yl)quinolin-4-yl)ethyl)benzamide] | 128 nM
Cc1ccc(N2CC3CNCC3C2)cc1C(=O)N[C@H](C)c1cc(-c2cnn(C)c2)nc2ccccc12 (stereo partly drawn) [Example 261] | 21 nM
Cc1cc(CNCc2cscn2)ccc1C(=O)NC1(c2cc(-c3cnn(C)c3)nc3ccccc23)CC1 [Example 210] | 6 nM
Cc1ccc(CN)cc1C(=O)NC(C)c1cc(-n2ccc(C#N)n2)nc2ccccc12 (stereo not drawn) [Example 35, 5-(aminomethyl)-N-(1-(2-(3-cyano-1H-pyrazol-1-yl)quinolin-4-yl)ethyl)-2-methylbenzamide] | 1480 nM
